In the supplement of paper PMC4862054:
Values belong to the compound of their own block, whether it stands above or below them.

What was measured:
CAL-85-1 [1] = conditions: 72 h
Procedure: (§1)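 Drug sensitivity and resistance testing (DSRT) of breast cancer cell lines in 384-well plates, 5 concentrations in 10-fold dilutions over a compound-specific 10,000-fold range. After 72 h, cytotoxicity was read by CellTox Green fluorescence and viability by CellTiter-Glo luminescence (multiplexed), normalised to DMSO and benzethonium chloride controls. EC50 is the inflection point of the fitted dose-response curve (bottom asymptote free, so it can be relative for partial curves) and is censored at the highest tested concentration. Rows with DSS 0 (no meaningful response) were excluded.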

BT-474 [2] = conditions: 72 h
Procedure: as §1

MFM-223 [3] = conditions: 72 h
Procedure: as §1

HCC1599 [4] = conditions: 72 h
Procedure: as §1

Hs578T [5] = conditions: 72 h
Procedure: as §1

HCC1143 [6] = conditions: 72 h
Procedure: as §1

MDA-MB-468 [7] = conditions: 72 h
Procedure: as §1

BT-549 [8] = conditions: 72 h
Procedure: as §1

CAL-51 [9] = conditions: 72 h
Procedure: as §1

CAL-120 [10] = conditions: 72 h
Procedure: as §1

MDA-MB-231 [11] = conditions: 72 h
Procedure: as §1

MCF-10A [12] = conditions: 72 h
Procedure: as §1

CAL-85-1 [13] = conditions: 72 h; remark: listed apart in the source
Summary of the method: (§2)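 Two sequential readouts followed a 72 h incubation of breast cancer cell lines with compound at 5 concentrations in 10-fold steps over a compound-specific 10,000-fold range: CellTox Green fluorescence (485/520 nm) for cell death, then CellTiter-Glo luminescence, after 10 min at room temperature, for viability. Each plate was normalised to 0.1 % DMSO and a positive kill control. Dose-response curves were fitted for EC50, censored at the top concentration.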

BT-474 [14] = conditions: 72 h; remark: listed apart in the source
Summary of the method: as §2

CAL-148 = conditions: 72 h
Summary of the method: as §2

MFM-223 [15] = conditions: 72 h; remark: listed apart in the source
Summary of the method: as §2

SK-BR-3 [16] = conditions: 72 h
Summary of the method: as §2

HCC1599 [17] = conditions: 72 h; remark: listed apart in the source
Summary of the method: as §2

Hs578T [18] = conditions: 72 h; remark: listed apart in the source
Summary of the method: as §2

HCC1143 [19] = conditions: 72 h; remark: listed apart in the source
Summary of the method: as §2

HDQ-P1 [20] = conditions: 72 h
Summary of the method: as §2

BT-549 [21] = conditions: 72 h; remark: listed apart in the source
Summary of the method: as §2

CAL-51 [22] = conditions: 72 h; remark: listed apart in the source
Summary of the method: as §2

MDA-MB-453 [23] = conditions: 72 h
Summary of the method: as §2

HCC1937 [24] = conditions: 72 h
Summary of the method: as §2

MDA-MB-231 [25] = conditions: 72 h; remark: listed apart in the source
Summary of the method: as §2

DU-4475 [26] = conditions: 72 h
Summary of the method: as §2

MDA-MB-436 [27] = conditions: 72 h
Summary of the method: as §2

MCF-10A [28] = conditions: 72 h; remark: listed apart in the source
Summary of the method: as §2

Hs578T [29] = assay: drug sensitivity score (DSS), CellTox Green (DSS (AUC-based score)); higher = stronger drug effect (viability inhibition or cytotoxicity); extreme values may be limits of the assay; conditions: incubation time: 72 h
Summary of the method: (§3)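 Plates with 384 wells held compound at 5 concentrations in 10-fold steps over a 10,000-fold range specific to each compound. Breast cancer cell lines were added in 20 µl suspension and incubated 72 h, then read for CellTox Green and CellTiter-Glo signals, with each plate normalised to 0.1 % DMSO and a positive kill control. The drug sensitivity score is based on the area under the fitted dose-response curve.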

HCC1937 [30] = assay: as above; conditions: incubation time: 72 h
Summary of the method: as §3

MDA-MB-231 [31] = assay: as above; conditions: incubation time: 72 h
Summary of the method: as §3

CAL-85-1 [32] = conditions: 72 h; remark: listed apart in the source
Summary of the method: (§4)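 Compound dissolved in 5 µl medium was placed in 384-well plates before 20 µl of breast cancer cell suspension was added, and the plates were incubated for 72 h. Cells then received 2.5 µl CellTiter-Blue for 2 h at 37 °C, and fluorescence was read at 560/590 nm. EC50 values come from percent-inhibition dose-response fits that were censored at the highest concentration, with plates normalised to vehicle and a positive kill control and rows with a zero drug sensitivity score excluded.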

HDQ-P1 [33] = conditions: 72 h; remark: listed apart in the source
Summary of the method: as §4

MDA-MB-453 [34] = conditions: 72 h; remark: listed apart in the source
Summary of the method: as §4

DU-4475 [35] = conditions: 72 h; remark: listed apart in the source
Summary of the method: as §4

BT-474 [36] = conditions: 72 h; remark: listed apart in the source
Summary of the method: as §4

MFM-223 [37] = conditions: 72 h; remark: listed apart in the source
Summary of the method: as §4

SK-BR-3 [38] = conditions: 72 h; remark: listed apart in the source
Summary of the method: as §4

HCC1599 [39] = conditions: 72 h; remark: listed apart in the source
Summary of the method: as §4

Hs578T [40] = conditions: 72 h; remark: listed apart in the source
Summary of the method: as §4

HCC1143 [41] = conditions: 72 h; remark: listed apart in the source
Summary of the method: as §4

MDA-MB-468 [42] = conditions: 72 h; remark: listed apart in the source
Summary of the method: as §4

BT-549 [43] = conditions: 72 h; remark: listed apart in the source
Summary of the method: as §4

CAL-120 [44] = conditions: 72 h; remark: listed apart in the source
Summary of the method: as §4

HCC1937 [45] = conditions: 72 h; remark: listed apart in the source
Summary of the method: as §4

MDA-MB-231 [46] = conditions: 72 h; remark: listed apart in the source
Summary of the method: as §4

MDA-MB-436 [47] = conditions: 72 h; remark: listed apart in the source
Summary of the method: as §4

EC50, CellTiter-Glo (BT-474 [14]): 5.38 nM | EC50, CellTiter-Glo (SK-BR-3 [16]): 2.44 nM | EC50, CellTiter-Glo (HCC1599 [17]): 19.7 nM | EC50, CellTiter-Glo (HCC1143 [19]): 2.51 nM | EC50, CellTiter-Glo (BT-549 [21]): 2.25 nM | EC50, CellTiter-Glo (MDA-MB-453 [23]): 2.44 nM | EC50, CellTiter-Glo (HCC1937 [24]): 2.55 nM | EC50, CellTiter-Glo (MDA-MB-231 [25]): 5.07 nM | EC50, CellTiter-Glo (MDA-MB-436 [27]): 3.49 nM | EC50, CellTiter-Blue viability (MDA-MB-453 [34]): 6.17 nM | EC50, CellTiter-Blue viability (BT-474 [36]): 0.15 nM | EC50, CellTiter-Blue viability (SK-BR-3 [38]): 0.3 nM | EC50, CellTiter-Blue viability (HCC1599 [39]): 61.1 nM | EC50, CellTiter-Blue viability (HCC1143 [41]): 1.61 nM | EC50, CellTiter-Blue viability (MDA-MB-468 [42]): 1.5 nM | EC50, CellTiter-Blue viability (BT-549 [43]): 3.04 nM | EC50, CellTiter-Blue viability (HCC1937 [45]): 0.67 nM | EC50, CellTiter-Blue viability (MDA-MB-231 [46]): 1.61 nM | EC50, CellTiter-Blue viability (MDA-MB-436 [47]): 5.02 nM
Structure (SMILES): CC[C@]1(O)C[C@@H]2CN(CCc3c([nH]c4ccccc34)[C@@](C(=O)OC)(c3cc4c(cc3OC)N(C)[C@H]3[C@@](O)(C(=O)OC)[C@H](OC(C)=O)[C@]5(CC)C=CCN6CC[C@]43[C@@H]65)C2)C1 [Vinblastine]
EC50, CellTox Green (CAL-85-1 [1]): 9.62 nM | EC50, CellTox Green (BT-474 [2]): 2.92 nM | EC50, CellTox Green (MFM-223 [3]): 7.9 nM | EC50, CellTox Green (HCC1599 [4]): 7.49 nM | EC50, CellTox Green (Hs578T [5]): 15.2 nM | EC50, CellTox Green (HCC1143 [6]): 61.8 nM | EC50, CellTox Green (MDA-MB-468 [7]): 2.48 nM | EC50, CellTox Green (BT-549 [8]): 4.29 nM | EC50, CellTox Green (CAL-51 [9]): 3.78 nM | EC50, CellTox Green (CAL-120 [10]): > 1000 nM | EC50, CellTox Green (MDA-MB-231 [11]): 15.8 nM | EC50, CellTox Green (MCF-10A [12]): 11.4 nM | EC50, CellTiter-Glo (CAL-85-1 [13]): 2.04 nM | EC50, CellTiter-Glo (CAL-148): 8.95 nM | EC50, CellTiter-Glo (MFM-223 [15]): 12.4 nM | EC50, CellTiter-Glo (Hs578T [18]): 9.25 nM | EC50, CellTiter-Glo (HDQ-P1 [20]): 5.35 nM | EC50, CellTiter-Glo (CAL-51 [22]): 8.68 nM | EC50, CellTiter-Glo (DU-4475 [26]): 75.5 nM | EC50, CellTiter-Glo (MCF-10A [28]): 2.59 nM | drug sensitivity score (Hs578T [29]): 21.4 | drug sensitivity score (HCC1937 [30]): 0 | drug sensitivity score (MDA-MB-231 [31]): 17 | EC50, CellTiter-Blue viability (CAL-85-1 [32]): 6.34 nM | EC50, CellTiter-Blue viability (HDQ-P1 [33]): 5.43 nM | EC50, CellTiter-Blue viability (DU-4475 [35]): 52.4 nM | EC50, CellTiter-Blue viability (MFM-223 [37]): 36 nM | EC50, CellTiter-Blue viability (Hs578T [40]): 1.3 nM | EC50, CellTiter-Blue viability (CAL-120 [44]): 0.3 nM

Structure (SMILES): CCN1CCN(c2ccc(Nc3cc(N(C)C(=O)Nc4c(Cl)c(OC)cc(OC)c4Cl)ncn3)cc2)CC1 [NVP-BGJ398]
EC50, CellTox Green (CAL-120 [10]): > 1000 nM | EC50, CellTiter-Glo (MFM-223 [15]): 50.5 nM | EC50, CellTiter-Glo (Hs578T [18]): > 1000 nM | drug sensitivity score (Hs578T [29]): 0 | drug sensitivity score (HCC1937 [30]): 0 | drug sensitivity score (MDA-MB-231 [31]): 2.84
